No end group written: not given here.
Assays:
[1] = tested on: normal human vascular endothelial cells (NHVEC); assay: Boyden chamber migration assay; assay type: cell-based; conditions: for Cell Number per HPF, Chamber 1 / Cell Number per HPF, Chamber 2 / Cell Number per HPF, Chamber 3 / Cell Number per HPF, Mean: 5×10^4 cells per well; for cell migration over migration in the presence of media alone / migration response compared to three positive controls (VEGF, PDGF, FGF): 100 ng/ml
Method: The effects of TB4 and TA1 on endothelial cell migration were determined. To investigate the possibility that these peptides effect the migration of normal human vascular endothelial cells (NHVEC) in vitro, a Boyden chamber migration assay was performed.
In the experiments of Table 1 and FIG. 1, normal human microvesicular endothelial cells are used at 5×10^4 cells per well. The wells are coated with 100 µg/ml […] Type IV.

endothelial cells = assay: MTT (tetrazolium) endothelial cell proliferation assay; assay type: cell-based; conditions: 10 ng/ml; 4 hours and 24 hours tested
Method: The effects of TB4 and TA1 on endothelial cell proliferation were determined using a MTT (tetrazolium) assay. The results are shown in FIG. 2 for 4 hours and 24 hours and for three concentrations of these peptides, 10 ng/ml, 100 ng/ml, and 1000 ng/ml. […] At a concentration of 10 ng/ml, TB4 and TA1 maximally stimulated cell proliferation approximately 2-fold and 3-fold over that of the control, respectively.

[2] = Isoelectric point of the peptide; assay type: physicochemical

With “Ac-SDAAVDTSSEITTKDLKEKKEVVEEAEN (Ac-SDAAVDTSSEITTKDLKEKKEVVEEAEN) [TA1, may be derived by cleavage of thymosin]” the “Cell Number per HPF, Chamber 1” value ([1]; 0.1 µg/ml) was 38 per HPF, the “Cell Number per HPF, Chamber 2” value ([1]; 0.1 µg/ml) was 45 per HPF and the “Cell Number per HPF, Chamber 3” value ([1]; 0.1 µg/ml) was 33 per HPF. For the same substance, the “Cell Number per HPF, Mean” value ([1]; 0.1 µg/ml) was 39 per HPF, the “cell migration over migration in the presence of media alone” value [1] was “significantly enhanced” and the “migration response compared to three positive controls (VEGF, PDGF, FGF)” value [1] was “heightened responses”. The “Cell Number per HPF, Chamber 1” value ([1]; 0.5 µg/ml) was 52 per HPF, the “Cell Number per HPF, Chamber 2” value ([1]; 0.5 µg/ml) was 53 per HPF and the “Cell Number per HPF, Chamber 3” value ([1]; 0.5 µg/ml) was 57 per HPF. For the same substance, the “Cell Number per HPF, Mean” value ([1]; 0.5 µg/ml) was 54 per HPF, the “Cell Number per HPF, Chamber 1” value ([1]; 1 µg/ml) was 64 per HPF and the “Cell Number per HPF, Chamber 2” value ([1]; 1 µg/ml) was 69 per HPF. For the same substance, the “Cell Number per HPF, Chamber 3” value ([1]; 1 µg/ml) was 43 per HPF, the “Cell Number per HPF, Mean” value ([1]; 1 µg/ml) was 59 per HPF and the “Cell Number per HPF, Chamber 1” value ([1]; 5 µg/ml) was 35 per HPF. The “Cell Number per HPF, Chamber 2” value ([1]; 5 µg/ml) was 64 per HPF, the “Cell Number per HPF, Chamber 3” value ([1]; 5 µg/ml) was 72 per HPF and the “Cell Number per HPF, Mean” value ([1]; 5 µg/ml) was 57 per HPF. For the same substance, the “Cell Number per HPF, Chamber 1” value ([1]; 10 µg/ml) was 51 per HPF, the “Cell Number per HPF, Chamber 2” value ([1]; 10 µg/ml) was 55 per HPF and the “Cell Number per HPF, Chamber 3” value ([1]; 10 µg/ml) was 66 per HPF. The “Cell Number per HPF, Mean” value ([1]; 10 µg/ml) was 57 per HPF, the “concentration of maximal effect on migration” value ([1]; dose response) was 100 ng/mL and the “maximal stimulation of cell proliferation over that of the control” value (endothelial cells) was roughly 3 fold. For the same substance, the isoelectric point [2] was 4.1.
With “Ac-ANKGQAPGEAMKPSFLKEKKEVVERSKEEEGPAKMNLVIEMPKD (Ac-ANKGQAPGEAMKPSFLKEKKEVVERSKEEEGPAKMNLVIEMPKD) [TB4]” the “cell migration over migration in the presence of media alone” value [1] was “significantly enhanced” and the “migration response compared to three positive controls (VEGF, PDGF, FGF)” value [1] was “heightened responses”.
